Assay: Henry solubility constant Hcp at 298.15 K (mol/(m3 Pa))
Settings: reference: Rytting et al. (1978)

SMILES | Henry solubility constant Hcp
CCC(C)O (configuration not stated) [2-butanol] | 0.98
CCCCCN [1-pentanamine] | 0.4
CCCCCCCN [1-heptanamine] | 0.24
CCCCCCCC [octane] | 3.1e-06
CC(C)CO [2-methyl-1-propanol] | 0.8
CCCCCCC [heptane] | 4.8e-06
CCCCCO [1-pentanol] | 0.9
CCCCCCCCN [1-octanamine] | 0.19
CCCCCCN [1-hexanamine] | 0.32
CCCCCC [hexane] | 5.4e-06
CCCCC [pentane] | 7.8e-06
CCCCN [1-butanamine] | 0.52
